Consider 2 compounds from patent US20080318912A1, “Medicaments for Treating Chronic Respiratory Disease” (priority 2004, published 2008).

SMILES strings stand for the structures. Where two headings read alike, the source gives them in different places.

Series [1] has as its system TS induced inflammation (cells recovered in the BAL). As to the kind of experiment: Tobacco smoke (TS) induced inflammation, BAL cell counts 24 h after 11 daily exposures. The series is classed as in vivo, A/J mice. To be noted: for Inhibition, Eosinophils (BAL) / Inhibition, Epithelial Cells (BAL) / Inhibition, Lymphocytes (BAL) / Inhibition, Macrophages (BAL) / Inhibition, Neutrophils (BAL) / Inhibition, Total Cells (BAL): 11 daily TS exposures. From the text:
Female inbred AJ mice (body weights on initial day of use: 17.2-27.4 g) were obtained from Harlan, full barrier bred and certified free from specified micro-organisms on receipt. The mice were housed, up to 5 per cage, in individually ventilated, polycarbonate solid bottomed cages (IVC) with grade 8 aspen chip bedding. Environment (airflow, temperature and humidity) within the cages was controlled by the IVC system (Techniplast). Food (RM 1, Special Diet Services) and water were provided ad libitum. Individual animals were identified by unique coloured “pentel” markings on their tails, weighed and randomly assigned to treatment groups.
The required quantity of compound was placed into a mortar. Half the required volume CMC was slowly added to form a fine paste and then this was carefully added back to a container. The residual volume of CMC required to achieve the required dose is used to wash out the mortar and the washings added back to the container. For the combination dose, each compound was formulated at double the final required concentration and an equal volume of each compound added together. […]
In this exposure protocol, mice were exposed in groups of 5 in individual clear polycarbonate chambers (27 cm×16 cm×12 cm). The TS from the cigarettes was allowed to enter the exposure chambers at a flow rate of 100 ml/min. In order to minimise any potential problems caused by repeated exposure to a high level of TS (6 cigarettes), the exposure of the mice to TS was increased gradually over the exposure period to a maximum of 6 cigarettes. The exposure schedule used in this study was as follows:
(§1) The trachea was cannulated using a Portex nylon intravenous cannula (pink luer fitting) shortened to approximately 8 mm. Phosphate buffered saline (PBS) containing heparin (10 units/ml) was used as the lavage fluid. A volume of 0.4 ml was gently instilled and withdrawn 3 times using a 1 ml syringe and then placed in an Eppendorf tube and kept on ice prior to subsequent determinations.
(§2) Lavage fluid was separated from cells by centrifugation and the supernatant decanted and frozen for subsequent analysis. The cell pellet was re-suspended in a known volume of PBS and total cell numbers calculated by counting a stained (Turks stain) aliquot under a microscope using a haemocytometer.
(§3) The residual cell pellet was diluted to approximately 10^5 cells per ml. A volume of 500 μl was placed in the funnel of a cytospin slide and centrifuged for 8 min at 800 rpm. The slide was air dried and stained using ‘Kwik-Diff’ solutions (Shandon) as per the proprietary instructions. When dried and cover-slipped, differential cells were counted using light microscopy. Up to 400 cells were counted by un biased operator using light microscopy. Cells were differentiated using standard morphometric techniques.
In addition, animals receiving steroid or the steroid combination were dosed with steroid 20 h prior to the first TS exposure. The control group of mice (shams) received vehicle on days 1 to 11 and were exposed to air daily for a maximum of 50 minutes per day. BAL was performed on day 12, 24 h following the eleventh and final TS exposure.
Since tests for normality were positive the data was subjected to a one way analysis of variance test (ANOVA), followed by a Bonferroni correction for multiple comparisons in order to test for significance between treatment groups. A “p” value of <0.05 was considered to be statistically significant. Percentage inhibitions were automatically calculated within the Excel spreadsheets for the cell data using the formula below: […]
Animals were sacrificed 24 h post the final exposure to TS/air. A BAL was performed and the total number of cells recovered counted. Data are presented as individual points and the mean values shown. Data are from 9-10 animals per group. Statistical analysis was by ANOVA. A “p” value of <0.05 was considered statistically significant. ns=not statistically significant.

Series [2] has as its system LPS induced increases in BAL cells. As to the kind of experiment: LPS challenge induced inflammation, BAL cell counts 24 h post challenge. In kind it is in vivo, A/J mice. The protocol:
Previous studies have shown that peak BAL neutrophilia is achieved 24 h post intranasal challenge with LPS at 0.3 μg. In the studies reported here this dose of LPS and this time point were employed. Control animals received phosphate buffered saline (PBS) intranasally.
Approximately 3 min prior to intra-nasal challenge anaesthesia was induced by isofluorane inhalation. Vehicle (PBS) or LPS was instilled at 50 μl per mouse. The LPS concentration was 6 μg/ml (0.3 μg per mouse). Animals were allowed to recover in a heated box at 37° C. and then returned to the home cage.
as §1, §2, §3
Animals were sacrificed 24 h post the LPS challenge. A BAL was performed and the total number of cells recovered counted. Data are presented as individual points and the mean values shown. Data are from 9-10 animals per group. Statistical analysis was by ANOVA. […]

Series [3] relates to phosphodiesterases. To be noted: cited from earlier work.
For series [4] the following is noted: 250 or 375 mg theophylline with 400 μg budesonide twice daily, asthma patients; cited from earlier work.
Series [5] deals with adenosine receptors (A1 and A2 receptors). To be noted: at therapeutic concentrations; cited from earlier work.
Series [6] is described as follows: Pharmacokinetic evaluation of plasma levels of theophylline after oral dosing. In kind it is in vivo, A/J mice. To be noted: for concentration at 15 min / concentration at 30 min / concentration at 60 min / concentration at 240 min: A/J, mouse, plasma; for concentration at 15 min: 15 minutes post dosing; for concentration at 60 min: 60 minutes post dosing; for concentration at 240 min: 240 minutes post dosing. The protocol:
The collected blood was mixed and decanted into eppendorf tubes before centrifugation in a microftige. Plasma was collected and stored at −80° C. prior to analysis by an HPLC/MS/MS method. The equipment used in the measurement of plasma levels were a Micromann Quatro Micro Mass Spectrometer (Micromass UK Limited) and a Waters 2795 Alliance HT liquid chromatograph (Waters USA).
Samples were prepared for analysis by adding 200 μl of acetonitrile (containing 0.25 mg/l dextrorphan as an internal standard) to 50 μl of each thawed sample and standard and mixed vigorously. Each sample and standard was then centrifuged at 1000 g for 2 minutes and the supernatant removed for LC-MS/MS analysis.
Analysis of theophylline and dextrorphan was carried out using reverse phase HPLC with tandem mass spectrometric detection (LC-MS/MS). Positive ions for parent compound and a specific fragment product were monitored in a Multiple Reaction Monitoring mode using a Micromass Quatro Micro Mass Spectrometer with Micromass MassLynx software version 4.0. A 25 μl aliquot of each sample and standard was injected onto the liquid chromatography system.

The conditions of series [7]: cited from earlier work.
Where [8] appears, read: dexamethasone 0.3 mg/kg p.o. twice daily, BAL 24 h post.
The mark [9] stands for this setting: dexamethasone 0.3 mg/kg p.o. at -20, -1 and 6 h relative to LPS (0.3 μg i.n.), BAL 24 h post challenge.
Where [10] appears, read: theophylline 3 mg/kg p.o. twice daily, BAL 24 h post.

For `C[C@@H]1C[C@H]2[C@@H]3CCC4=CC(=O)C=C[C@]4(C)[C@@]3(F)[C@@H](O)C[C@]2(C)[C@@]1(O)C(=O)CO` [Dexamethasone, dexamethasone], in series [1] (setting [8]), the “Inhibition, Eosinophils (BAL)” value is −94%; the “Inhibition, Epithelial Cells (BAL)” value is recorded as −20%; the “Inhibition, Lymphocytes (BAL)” value is recorded as −7%; the “Inhibition, Macrophages (BAL)” value is listed as −14%. Also, in series [1] (setting [8]), the “Inhibition, Neutrophils (BAL)” value is listed as −46% and the “Inhibition, Total Cells (BAL)” value was −16%. Moreover, in series [2] (setting [9]), the “Reduction of neutrophils in BAL” value is recorded as 71% and the “Reduction of total cells in BAL” value is given as 68%.
As for `Cn1c(=O)c2[nH]cnc2n(C)c1=O` [Theophylline, 3,7-dihydro-1,3-dimethyl-1H-purine-2,6-dione], the Inhibition of phosphodiesterases entry in series [3] was “weak and nonselective inhibitor”. For the same compound, in series [4], the “Plasma concentration achieved (median value)” value is 8.7 mg/L. Besides, the “Inhibitory effect on any of the specific cell types (BAL)” value in series [1] (theophylline 3 mg/kg alone p.o., 1 h prior to and 6 h post TS, 11 days) is on record as “No statistically significant inhibitory effect”. Also, the “Inhibition, Total Cells (BAL)” value in series [1] (theophylline 3 mg/kg p.o. twice daily (-1 h and +6 h), BAL 24 h post final exposure) is −11%. Further, in series [1] (setting [10]), the “Inhibition, Eosinophils (BAL)” value is recorded as −56%; the “Inhibition, Epithelial Cells (BAL)” value is recorded as −18%; the “Inhibition, Lymphocytes (BAL)” value was found to be 1%; the “Inhibition, Macrophages (BAL)” value is listed as −4%. Further, the “Inhibition, Neutrophils (BAL)” value in series [1] (setting [10]) is recorded as −10%. Also, the “Anti-inflammatory activity in the COPD (TS) model” value in series [1] (theophylline given alone) is recorded as “failed to demonstrate any significant anti-inflammatory activity”. Further, the “Activity on LPS induced pulmonary inflammation” value in series [2] (theophylline at the dose level tested (0.3 mg/kg p.o.)) is recorded as “without activity”. Also, the “Inhibition of adenosine receptors (antagonism of A1 and A2 receptors)” value in series [5] was “potent inhibitor”. Also, in series [6] (oral dose 0.3 mg/kg, mean ± SD), the concentration at 15 min stood at 130 ± 6 ng/mL, the concentration at 60 min turned out to be 256 ± 198 ng/mL and the concentration at 240 min amounted to 65 ± 11 ng/mL. In series [6] (oral dose 0.3 mg/kg, 30 minutes post dosing, mean ± SD), this compound gave a concentration at 30 min of 140 ± 25 ng/mL. For the same compound, in series [6] (oral dose 1 mg/kg, mean ± SD), the concentration at 15 min turned out to be 740 ± 760 ng/mL, the concentration at 60 min was found to be 410 ± 84 ng/mL and the concentration at 240 min came out at 60 ± 15 ng/mL. The compound also gave a concentration at 30 min in series [6] (oral dose 1 mg/kg, 30 minutes post dosing, mean ± SD) of 660 ± 122 ng/mL. In series [6] (oral dose 3 mg/kg, mean ± SD), this compound registered a concentration at 15 min of 1860 ± 290 ng/mL, a concentration at 60 min of 1470 ± 110 ng/mL and a concentration at 240 min of 90 ± 100 ng/mL. Also, the concentration at 30 min in series [6] (oral dose 3 mg/kg, 30 minutes post dosing, mean ± SD) was found to be 3660 ± 2640 ng/mL. Moreover, the “Plasma concentrations at all time points” value in series [6] (oral dose 0.3 mg/kg) is listed as “less than 1 mg/l”. The “Time of peak levels” value in series [6] (oral dose 3 mg/kg) came to 30 min. Moreover, the “Plasma level of the one animal above 5 mg/l” value in series [6] (oral dose 3 mg/kg, 30 minute time point, single animal) amounted to 6.7 mg/A. For the same compound, the “Plasma Levels” value in series [6] (oral dose 3 mg/kg, 30 minutes post dosing, mean ± SD, 3 mg/kg) was found to be 3.66 ± 2.64 mg/L. For the same compound, in series [7] (absorption from the gastrointestinal tract), the Bioavailability is recorded as 90-100%. In addition, the Mean plasma half-life entry in series [7] (adults) is listed as “about 8 hours”. Besides, in series [7] (in vivo), the “Plasma levels regarded as being necessary for anti-inflammatory efficacy” value is 10 to 20 mg/L. Moreover, the Plasma half-life entry in series [7] (premature neonates) was “approximately 30 hours”. For the same compound, the “Time to peak levels following ingestion” value in series [7] (slowed by the presence of food) is 1 to 2 h. Also, the Plasma half-life result in series [7] (up to the age of 20) is on record as “approximately 3.5 hours”.
